Here are results for 40 molecules from patent US11186564B2, “Dual NAV1.2/5HT2a inhibitors for treating CNS disorders” (Sunovion Pharmaceuticals Inc., priority 2016, dated 2021).

This assay concerns the target T1, recombinant human serotonin receptor 5-HT2A (Homo sapiens, UniProt P28223).
T1 construct: expressed in transfected cells; method B: loaded with Ca2+ dye
Kind of assay: 5-HT2A antagonist Ca2+ assay in CHO-K1 cells (method A aequorin luminescence / method B FLIPR fluorescence). Format: cell-based. The note with it: antagonist mode vs EC80 of reference agonist, method A or B. The method in brief:
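IC50 was obtained by nonlinear regression of percent inhibition of the EC80 agonist Ca2+ response in CHO-K1 cells stably expressing human 5-HT2A. The readout was aequorin luminescence with agonist injected 15 min after compound (A), or Ca2+-dye fluorescence on FLIPR with serotonin as agonist (B).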

Structures are written as SMILES. Where two headings read alike, the source gives them in different places.

T1 sequence (P28223 whole entry): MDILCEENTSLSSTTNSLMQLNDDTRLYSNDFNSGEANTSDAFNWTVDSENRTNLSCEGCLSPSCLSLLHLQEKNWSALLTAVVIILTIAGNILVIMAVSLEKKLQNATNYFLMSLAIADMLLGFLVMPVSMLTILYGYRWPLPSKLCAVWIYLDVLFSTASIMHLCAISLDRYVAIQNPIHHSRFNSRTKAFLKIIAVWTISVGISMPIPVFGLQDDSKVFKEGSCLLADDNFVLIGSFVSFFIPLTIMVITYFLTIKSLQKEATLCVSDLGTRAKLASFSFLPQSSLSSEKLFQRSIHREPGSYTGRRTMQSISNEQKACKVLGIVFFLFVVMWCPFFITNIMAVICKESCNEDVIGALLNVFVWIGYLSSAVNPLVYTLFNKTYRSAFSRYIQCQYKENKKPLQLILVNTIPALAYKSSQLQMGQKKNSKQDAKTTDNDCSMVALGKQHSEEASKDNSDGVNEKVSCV

Take `O[C@@H](COC1CCCCC1)CN1CC[C@@H]2C[C@H]1CN2c1ccccc1` [Example 327, (R)-1-(cyclohexyloxy)-3-((1S,5R)-6-phenyl-2,6-diazabicyclo[3.2.1]octan-2-yl)propan-2-ol]: the IC50 (read-out: 5HT2A IC50) is above 3.16 µM.

Regarding `c1ccc(CCN2C[C@@H]3C[C@H](C2)N(c2ccccc2)C3)cc1` [Example 330, (1S,5R)-3-phenethyl-6-phenyl-3,6-diazabicyclo[3.2.1]octane], the IC50 (read-out: 5HT2A IC50) was above 16.7 µM. Take `O[C@@H](COC1CCCCC1)CN1C[C@@H]2C[C@H](C1)N(c1ccccc1)C2` [Example 332, (R)-1-(cyclohexyloxy)-3-((1S,5R)-6-phenyl-3,6-diazabicyclo[3.2.1]octan-3-yl)propan-2-ol]: for the setting “read-out: 5HT2A IC50”, the IC50 was above 16.7 µM. For `O[C@H](COC1CCCCC1)CN1C[C@@H]2C[C@H](C1)N(c1ccccc1)C2` [Example 333, (S)-1-(cyclohexyloxy)-3-((1S,5R)-6-phenyl-3,6-diazabicyclo[3.2.1]octan-3-yl)propan-2-ol], the IC50 (read-out: 5HT2A IC50) is above 16.7 µM.

As for `OC(COc1ccccc1)CN1C[C@@H]2C[C@H](C1)N(c1ccccc1)C2` (stereo partly drawn) [Example 334, 1-phenoxy-3-((1S,5R)-6-phenyl-3,6-diazabicyclo[3.2.1]octan-3-yl)propan-2-ol], the IC50 (read-out: 5HT2A IC50) is above 16.7 µM. As to `COc1ccccc1N1CCC2(CCN(CC3CCc4cccnc43)C2)C1` (stereo not shown) [Example 336, 2-((6,7-dihydro-5H-cyclopenta[b]pyridin-7-yl)methyl)-7-(2-methoxyphenyl)-2,7-diazaspiro[4.4]nonane], the IC50 (read-out: 5HT2A IC50) amounted to 3.28 µM.

As to `COc1ccccc1N1CCC2(CCN(CC3Cc4cccnc4C3)C2)C1` (stereo not shown) [Example 338, 2-((6,7-dihydro-5H-cyclopenta[b]pyridin-6-yl)methyl)-7-(2-methoxyphenyl)-2,7-diazaspiro[4.4]nonane], for the setting “read-out: 5HT2A IC50”, the IC50 was above 10 µM. Take `Fc1ccc(N2CCC3(CCN(CC4Cc5ccncc5C4)C3)C2)cc1` (stereo not shown) [Example 341, 2-((6,7-dihydro-5H-cyclopenta[c]pyridin-6-yl)methyl)-7-(4-fluorophenyl)-2,7-diazaspiro[4.4]nonane]: the IC50 (read-out: 5HT2A IC50) worked out at 3.12 µM. As for `COc1ccccc1CN1CCC2(CCN(c3ccccc3)C2)C1` (stereo not shown) [Example 342, 2-(2-methoxybenzyl)-7-phenyl-2,7-diazaspiro[4.4]nonane], the IC50 (read-out: 5HT2A IC50) was 2.08 µM.

For `COc1cccc(CN2CCC3(CCN(c4ccccc4)C3)C2)c1` (stereo not shown) [Example 343, 2-(3-methoxybenzyl)-7-phenyl-2,7-diazaspiro[4.4]nonane], under “read-out: 5HT2A IC50”, the IC50 is 2.46 µM. As to `OC(COC1CCCCC1)CN1CCC2(CCCN2c2ccccc2)C1` (stereo not shown) [Example 348, 1-(cyclohexyloxy)-3-(1-phenyl-1,7-diazaspiro[4.4]nonan-7-yl)propan-2-ol], where the note is “read-out: 5HT2A IC50”, the IC50 came out at 7.34 µM. For `OC(COC1CCCCC1)CN1CCCC12CCN(c1ccccc1)C2` (stereo not shown) [Example 349, 1-(cyclohexyloxy)-3-(7-phenyl-1,7-diazaspiro[4.4]nonan-1-yl)propan-2-ol], the IC50 (read-out: 5HT2A IC50) was above 16.7 µM. `OC(COC1CCCCC1)CN1CCC2(CCCN(c3ccccc3)C2)C1` (stereo not shown) [Example 351, 1-(cyclohexyloxy)-3-(7-phenyl-2,7-diazaspiro[4.5]decan-2-yl)propan-2-ol]: the IC50 (read-out: 5HT2A IC50) is above 16.7 µM.

`OC(COc1ccccc1)CN1CCCC12CCN(c1ccccc1)CC2` (stereo not shown) [Example 352, 1-phenoxy-3-(8-phenyl-1,8-diazaspiro[4.5]decan-1-yl)propan-2-ol]: the IC50 (read-out: 5HT2A IC50) is above 5.3 µM. Turning to `OC(COC1CCCCC1)CN1CCCC12CCCN(c1ccccc1)C2` (stereo not shown) [Example 353, 1-(cyclohexyloxy)-3-(7-phenyl-1,7-diazaspiro[4.5]decan-1-yl)propan-2-ol], under “read-out: 5HT2A IC50”, the IC50 was above 16.7 µM. Still for that read-out and setting: then `OC(COC1CCCCC1)CN1CCC2(CC1)CCN(c1ccccc1)C2` (stereo not shown) [Example 354, 1-(cyclohexyloxy)-3-(2-phenyl-2,8-diazaspiro[4.5]decan-8-yl)propan-2-ol], with 1.94 µM; and `OC(COC1CCCCC1)CN1CCC2(CCCN2c2ccccc2)CC1` (stereo not shown) [Example 355, 1-(cyclohexyloxy)-3-(1-phenyl-1,8-diazaspiro[4.5]decan-8-yl)propan-2-ol], with above 16.7 µM; and `O[C@H](COC1CCCCC1)CN1CC2(CC(Oc3ccccc3)CO2)C1` (stereo partly drawn) [Example 371, (2S)-1-(cyclohexyloxy)-3-(7-phenoxy-5-oxa-2-azaspiro[3.4]octan-2-yl)propan-2-ol], with 0.09 µM. Still for that read-out and setting: for `O[C@@H](COC1CCCCC1)CN1CC2(CC(Oc3ccccc3)CO2)C1` (stereo partly drawn) [Example 372, (2R)-1-(cyclohexyloxy)-3-(7-phenoxy-5-oxa-2-azaspiro[3.4]octan-2-yl)propan-2-ol] the value was 0.09 µM. For the molecule `O=C1CC2(CN(CC3CCc4ccccc43)C2)Oc2ccccc21` (stereo not shown) [Example 386, 1-((2,3-dihydro-1H-inden-1-yl)methyl)spiro[azetidine-3,2′-chroman]-4′-one], under “read-out: 5HT2A IC50”, the IC50 worked out at 3.76 µM.

As for `OC(COC1CCCCC1)CN1CCC2(CC1)COc1ccccc12` (stereo not shown) [Example 389, 1-(cyclohexyloxy)-3-(2H-spiro[benzofuran-3,4′-piperidin]-1′-yl)propan-2-ol], for the setting “5HT2A IC50, μM”, the IC50 was 8.58 µM. On to `c1ccc2c(c1)COC21CCN(CC2COc3ccccc32)CC1` (stereo not shown) [Example 391, 1′-((2,3-dihydrobenzofuran-3-yl)methyl)-3H-spiro[isobenzofuran-1,4′-piperidine]], for which, under “5HT2A IC50, μM”, the IC50 was found to be 14.1 µM. For `c1ccc2c(c1)CC(CN1CCC3(CC1)OCc1ccccc13)C2` [Example 392, 1′-((2,3-dihydro-1H-inden-2-yl)methyl)-3H-spiro[isobenzofuran-1,4′-piperidine]], where the note is “5HT2A IC50, μM”, the IC50 worked out at 1.59 µM. `c1ccc2c(c1)CC1(CCN(CC3CCc4cccnc43)CC1)O2` (stereo not shown) [Example 394, 1′-((6,7-dihydro-5H-cyclopenta[b]pyridin-7-yl)methyl)-3H-spiro[benzofuran-2,4′-piperidine]]: the IC50 (read-out: 5HT2A IC50) is above 10.9 µM. On the same count and under the same terms, for `c1ccc2c(c1)CC1(CCN(CC3COc4ccccc43)CC1)O2` (stereo not shown) [Example 395, 1′-((2,3-dihydrobenzofuran-3-yl)methyl)-3H-spiro[benzofuran-2,4′-piperidine]] the value was above 10 µM; for `c1ccc2c(c1)CC1(CCN(CC3Cc4cccnc4C3)CC1)O2` (stereo not shown) [Example 397, 1′-((6,7-dihydro-5H-cyclopenta[b]pyridin-6-yl)methyl)-3H-spiro[benzofuran-2,4′-piperidine]], 2.76 µM; for `c1ccc2c(c1)CC1(CCN(CC3Cc4ccncc4C3)CC1)O2` (stereo not shown) [Example 398, 1′-((6,7-dihydro-5H-cyclopenta[c]pyridin-6-yl)methyl)-3H-spiro[benzofuran-2,4′-piperidine]], 9.65 µM. Regarding `c1ccc2c(c1)CCC1(CCN(CC3CCc4ncccc43)CC1)O2` (stereo not shown) [Example 407, 1′-((6,7-dihydro-5H-cyclopenta[b]pyridin-5-yl)methyl)spiro[chromane-2,4′-piperidine]], the IC50 (read-out: 5HT2A IC50) was found to be 3.64 µM. Still for that read-out and setting: for `c1ccc2c(c1)CCC1(CCN(CC3CCc4cnccc43)CC1)O2` (stereo not shown) [Example 408, 1′-((6,7-dihydro-5H-cyclopenta[c]pyridin-5-yl)methyl)spiro[chromane-2,4′-piperidine]] the value was 0.74 µM. Same read-out and setting: then `OC1(CN2CCC3(CCc4ccccc4O3)CC2)COCc2ccccc21` (stereo not shown) [Example 413, 4-(spiro[chromane-2,4′-piperidin]-1′-ylmethyl)isochroman-4-ol], with 1.1 µM. In the case of `c1ccc(CN2CCC3(CCc4ccccc4O3)CC2)cc1` [Example 415, 1′-benzylspiro[chromane-2,4′-piperidine]], under “read-out: 5HT2A IC50”, the IC50 was found to be 2.15 µM. In the case of `COc1ccccc1CN1CCC2(CCc3ccccc3O2)CC1` [Example 416, l′-(2-methoxybenzyl) spiro[chromane-2,4′-piperidine]], the IC50 (read-out: 5HT2A IC50) came to 1.05 µM. Turning to `C[C@@H]1C[C@]2(CCc3ccccc3O2)CCN1CCN1CCc2ccccc2C1=O` [Example 423, 2-(2-((2S,2′R)-2′-methylspiro[chromane-2,4′-piperidin]-1′-yl)ethyl)-3,4-dihydroisoquinolin-1(2H)-one], the IC50 (read-out: 5HT2A IC50) amounted to 2.81 µM. Still for that read-out and setting: for `C[C@H]1C[C@@]2(CCc3ccccc3O2)CCN1CCN1CCc2ccccc2C1=O` [Example 424, 2-(2-((2R,2′S)-2′-methylspiro[chromane-2,4′-piperidin]-1′-yl)ethyl)-3,4-dihydroisoquinolin-1(2H)-one] the value was 0.05 µM. In the case of `C[C@H]1C[C@]2(CCc3ccccc3O2)CCN1CCN1CCc2ccccc2C1=O` [Example 425, 2-(2-((2S,2′S)-2′-methylspiro[chromane-2,4′-piperidin]-1′-yl)ethyl)-3,4-dihydroisoquinolin-1(2H)-one], where the note is “read-out: 5HT2A IC50”, the IC50 was 0.12 µM. For the molecule `c1ccc2c(c1)CCC1(CCN(CCO[C@@H]3CCc4ccccc43)CC1)O2` [Example 431, (R)-1′-(2-((2,3-dihydro-1H-inden-1-yl)oxy)ethyl)spiro[chromane-2,4′-piperidine]], the IC50 (read-out: 5HT2A IC50) is 0.71 µM. Turning to `C[C@H]1C[C@]2(CCc3ccccc3O2)CCN1CCO[C@H]1CCc2ccccc21` [Example 433, (2S,2′S)-1′-(2-(((S)-2,3-dihydro-1H-inden-1-yl)oxy)ethyl)-2′-methylspiro[chromane-2,4′-piperidine]], where the note is “read-out: 5HT2A IC50”, the IC50 worked out at 0.32 µM. In the case of `C[C@@H]1C[C@@]2(CCc3ccccc3O2)CCN1CCO[C@H]1CCc2ccccc21` [Example 434, (2R,2′R)-1′-(2-(((S)-2,3-dihydro-1H-inden-1-yl)oxy)ethyl)-2′-methylspiro[chromane-2,4′-piperidine]], the IC50 (read-out: 5HT2A IC50) stood at 0.73 µM. `C[C@@H]1C[C@]2(CCc3ccccc3O2)CCN1CCO[C@H]1CCc2ccccc21` [Example 435, (2S,2′R)-1′-(2-(((S)-2,3-dihydro-1H-inden-1-yl)oxy)ethyl)-2′-methylspiro[chromane-2,4′-piperidine]]: under “read-out: 5HT2A IC50”, the 50% inhibitory concentration (IC50) came to 0.37 µM.

As to `O=C1CC2(CCN(CC3CCc4ccccc43)CC2)Oc2ccccc21` (stereo not shown) [Example 444, l′-((2,3-dihydro-1H-inden-1-yl)methyl)spiro[chromane-2,4′-piperidin]-4-one], under “read-out: 5HT2A IC50”, the IC50 was 1.44 µM.

Usually IC50 stands for the point on the concentration scale where inhibition reaches its midpoint.
